# System: Mv1Lu mink lung epithelial cells
# Assay: 1536 well BrdU cytoblot
# Type: cell-based
# Conditions: 1536-well plate, approximately 500 cells per well
# Experimental: FIG. 3. BrdU incorporation can be efficiently detected with a cytoblot in 1536 well plates in 2 μL droplets. 500 Mv1Lu mink lung epithelial cells were seeded in each well of a white, opaque 1536 well plate (Corning/Costar, Corning, N.Y.). The cells were seeded with or without […] TGF-β in 2 μL of 1% mink medium and allowed to incubate at 37° C. with 5% CO2. After 24 hours, 0.5 μL of 50 μM BrdU in 1% mink medium was added to the indicated wells, for a final concentration of 10 μM BrdU. The plate were incubated at 37° C. with 5% CO2 for an additional 12 hours and then an anti-BrdU cytoblot protocol was performed (see protocols). Wells are magnified as indicated.
# Thus, the application of the cytoblot assay to plates containing a higher density of wells was tested. Mink lung cells were seeded into opaque, white 1536-well plates with each well containing approximately 500 cells. Next, the ability of TGF-β to prevent BrdU incorporation was assayed. […] The following protocol provides experimental detail.
# The reagents to be tested were prepared in 1536 well plates (Greiner America, Lake Mary, Fla.), with one or more test compounds per well. If the test compounds were attached on solid support (beads), then the beads were distributed into individual wells of 1536 well white plate in acetonitrile. […]
substance,measurement,value
"TGF-β: anti-mitogen transforming growth factor β, multifunctional polypeptide signaling factor",BrdU incorporation,effectively prevents BrdU incorporation
